{
  "source": "patent US20230339862A1",
  "about": "“NOVEL DIBENZOACRIDINIUM DERIVATIVES, THEIR PROCESS OF PREPARATION AND THEIR USE FOR TREATING VIRAL INFECTIONS” (priority 2020, published 2023)",
  "key": {"HIV-1 [1]": {"test_system": "HIV-1", "assay": "microbe, parasite or virus in culture", "format": "cell-based", "conditions": "for inhibition of HIV-1 infectivity: 10 µM"}, "Ebola Gabon virus": {"test_system": "Ebola Gabon virus", "assay": "microbe, parasite or virus in culture", "format": "cell-based", "conditions": "Zaire ebolavirus, read-out: Ebola virus inhibition (immunohistochemistry, infectious titer)"}, "Marburg virus": {"test_system": "Marburg virus", "assay": "organism not typed", "format": "cell-based", "conditions": "read-out: Marburg virus inhibition (immunohistochemistry, infectious titer)"}, "HIV-1 [2]": {"test_system": "HIV-1", "conditions": "primary infected cells versus MT4 infected cell lines; cited from earlier work"}, "HIV-1 [3]": {"test_system": "HIV-1", "conditions": "MT4 cells, reported in 2014; read-out: IC50 HIV-1 infectivity; cited from earlier work"}},
  "note": "Read-outs that look alike come from different tables or passages of the source.",
  "data": [
    {"smiles": "COc1ccc2c(ccc3c2cc2c4ccc(OC)cc4ccc2[n+]3-c2ccccc2)c1.[Cl-]", "note": "[C031]", "values": [
      {"measurement": "activity on HIV-1 relative to BRACO-19", "setting": "HIV-1 [1]", "value": "at least five time more active"},
      {"measurement": "inhibition of HIV-1 infectivity", "setting": "HIV-1 [1]", "value": "Complete inhibition"}
    ]},
    {"smiles": "c1ccc(C[n+]2c3ccc4ccccc4c3cc3c4ccccc4ccc32)cc1", "note": "[CO39]", "values": [
      {"measurement": "inhibition at 5 µM", "setting": "Ebola Gabon virus; 5 μM", "value": "~60", "unit": "%"},
      {"measurement": "inhibition at 20 µM", "setting": "Ebola Gabon virus; 20 μM", "value": "~100", "unit": "%"},
      {"measurement": "inhibition at 5 µM", "setting": "Marburg virus; 5 μM", "value": 30, "unit": "%"},
      {"measurement": "inhibition at 20 µM", "setting": "Marburg virus; 20 μM", "value": "~100", "unit": "%"}
    ]},
    {"smiles": "c1ccc(-[n+]2c3ccc4ccccc4c3cc3c4ccccc4ccc32)cc1", "note": "[C038]", "values": [
      {"measurement": "inhibition of HIV-1 infectivity", "setting": "HIV-1 [1]", "value": "Complete inhibition"}
    ]},
    {"smiles": "COc1ccc2c(ccc3c2cc2c4ccc(OC)cc4ccc2[n+]3-c2ccc([N+](=O)[O-])cc2)c1", "note": "[C0370]", "values": [
      {"measurement": "activity on HIV-1 relative to BRACO-19", "setting": "HIV-1 [1]", "value": "at least five time more active"},
      {"measurement": "selectivity index (SI)", "setting": "HIV-1 [1]", "value": 17},
      {"measurement": "inhibition of HIV-1 infectivity", "setting": "HIV-1 [1]", "value": "Complete inhibition"}
    ]},
    {"smiles": "CN(C)c1ccc(Nc2c3ccc(NC(=O)CCN4CCCC4)cc3nc3cc(NC(=O)CCN4CCCC4)ccc23)cc1", "note": "[Braco19]", "values": [
      {"measurement": "IC50", "setting": "HIV-1 [1]; Human immunodeficiency virus 1, HeLaP4, read-out: IC50 HIV-1 infectivity", "value": "~8", "unit": "µM"},
      {"measurement": "antiviral effect in primary infected cells", "setting": "HIV-1 [2]", "value": "less efficient with respect to MT4 infected cell lines"},
      {"measurement": "IC50", "setting": "HIV-1 [3]", "value": "~6", "unit": "µM"}
    ]}
  ]
}
